The test system of series [1] is Stomach cancer cells, SNU-601. As to the kind of experiment: In vivo anti-cancer activity of hydrogel containing paclitaxel in nude mouse tumour model. The settings on record: 60 mg/kg, day 10 after administration, ten mice per group. As to the method:
A nude mouse (Oriental Bio, Balb/C, female of 5-weeks old, 20 g) was used as an animal model for animal experimentation for an in vivo test. Stomach cancer cells, SNU-601 (1×10^7 cells, 0.2 ml, Korean Cell Line Bank), were injected into the dorsum of the mouse. […] 0.2 ml of the solution was injected into the cancer cells, and the change in the size of the cells was measured. […] Each test was conducted for ten (10) mice for each of the control groups and the experimental groups.

For series [2] the following is noted: pH 7.4.
Protocol: The solutions were put into a chamber of a Brookfield DV-III+ Rheometer equipped with a thermostatic bath (TC-501). The sol-gel phase transition was observed while raising the temperature at the rate of 0.04° C./min and a shear rate of 0.1 to 1.7 per second.
(temperature)” means the temperature where the viscosity of the polymer solution reaches the maximum point, and the term “Max. gel solidity” means the maximum viscosity of the polymer solution.
Such two polymers with contrary properties were mixed in various mixture ratios, and then their sol-gel phase transition with temperature change was observed.
The target in series [3] is T1, albumin (Bovine Serum Albumin; BSA) (Bos taurus, UniProt P02769).
T1 construct: 0.01% albumin solution (Bovine Serum Albumin; BSA, Wako chemical); purchased Wako chemical
T1 sequence (P02769 25-607): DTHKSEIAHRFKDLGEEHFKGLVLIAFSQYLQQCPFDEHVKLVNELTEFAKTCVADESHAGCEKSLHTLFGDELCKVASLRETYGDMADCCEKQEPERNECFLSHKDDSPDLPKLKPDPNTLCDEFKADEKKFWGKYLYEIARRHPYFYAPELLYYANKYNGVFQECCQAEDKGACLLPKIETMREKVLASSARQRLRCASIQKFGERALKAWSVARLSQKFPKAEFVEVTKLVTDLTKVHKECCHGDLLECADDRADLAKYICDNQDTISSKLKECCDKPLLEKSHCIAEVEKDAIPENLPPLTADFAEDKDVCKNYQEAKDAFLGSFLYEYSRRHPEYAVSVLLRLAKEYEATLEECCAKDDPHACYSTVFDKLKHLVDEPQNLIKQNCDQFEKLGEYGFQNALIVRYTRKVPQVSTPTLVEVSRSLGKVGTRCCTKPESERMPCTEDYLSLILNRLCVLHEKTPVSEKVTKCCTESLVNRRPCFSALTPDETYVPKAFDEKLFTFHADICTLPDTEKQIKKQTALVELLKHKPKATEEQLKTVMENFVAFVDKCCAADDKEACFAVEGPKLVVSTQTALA
As to the kind of experiment: Formation of ionic bond between additives and protein drug (polyacrylamide gel electrophoresis). The class given is binding. The settings on record: additive 0.02, 0.1, 1 and 2 mg/ml in 0.01% albumin solution. As to the method:
In order to confirm the formation of an ion bond between the additives and drugs, gel electrophoresis was conducted. […] BSA, Wako chemical) at various concentrations (0.02, 0.1, 1 and 2 mg/ml) and sufficiently stirred.

`CC(=O)O[C@H]1C(=O)[C@@]2(C)[C@H]([C@H](OC(=O)c3ccccc3)[C@]3(O)C[C@H](OC(=O)[C@H](O)[C@@H](NC(=O)c4ccccc4)c4ccccc4)C(C)=C1C3(C)C)[C@]1(OC(C)=O)CO[C@@H]1C[C@@H]2O` [paclitaxel]: in series [1], the “mice died due to toxicity” value is reported as 8 mice.

Take “poly[(isoleucine ethyl ester) (aminomethoxy polyethylene glycol 550)(aminoethylsuccinate)(aminoethylsuccinate ethylene hyaluronic acid)phosphazene] [Example 22]”: the Max. gelling temp. in series [2] amounted to 38 °C.

In series [2], “poly[(isoleucine ethyl ester)(aminomethoxy polyethylene glycol 550)(aminoethylsuccinate)phosphazene] [Example 18]” displayed a Max. gelling temp. of 37 °C.

In series [2], “poly[(isoleucine ethyl-ester)(aminomethoxy polyethylene glycol 550)(glycylleucine)phosphazene] [Example 9]” yielded a Max. gelling temp. of 46 °C.

On to protamine, for which the “ionic bond with albumin: development on polyacrylamide gel” value in series [3] was “worse development property of the gel as the concentration of the additive is higher”.
